Results: article PMC11512107, “Structural and biochemical analysis of ligand binding in yeast Niemann–Pick type C1–related protein” (Life Science Alliance, 2024)
Values joined by “and” are separate entries in the source; they are usually repeats but may differ in a detail not shown here. Equal values may be shown once. “Also recorded” adds a separate entry of the source. Blank lines part the entries; values can stand above or below the molecule they belong to.

Key:
[1] = parameters: method as in PMID 19348755; details: aggregated form; cited from earlier work
[2] = target: T1, NPC2 (Saccharomyces cerevisiae, UniProt Q12408); experiment: In vitro liposome crosslinking assay of pac-lipids with NPC2; type: binding
T1 construct: residues 1–173, UniProt: Q12408; thrombin cleavage site (C); deca-histidine tag (C, cleaved yes); made in house; host or cells: Saccharomyces cerevisiae strain DSY-5
T1 sequence (Q12408 22-173): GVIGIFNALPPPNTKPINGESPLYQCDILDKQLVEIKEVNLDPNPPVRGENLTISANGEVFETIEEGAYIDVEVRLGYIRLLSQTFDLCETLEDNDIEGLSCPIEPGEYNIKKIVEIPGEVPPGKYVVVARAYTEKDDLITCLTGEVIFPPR
Protocol: To compare with the interaction profile of the NTD, crosslinking assays were also performed with purified, delipidated NPC2 (Fig S4A and B). […] NPC2 crosslinks well with all tested pac-lipids but, as for the NTD, most strongly with pacChol (+UV/−UV ratio = 1.91). Robust and consistent crosslinking with pacSph (+UV/−UV ratio = 1.64), pacCer (+UV/−UV = 1.67), and pacPC (+UV/−UV = 1.63) were observed. The crosslinking efficiency for cholesterol and sphingosine analogs was higher for the NTD, whereas crosslinking with ceramide and PC analogs seemed stronger with NPC2.
Lipids from stock vials were dissolved in chloroform and mixed at the desired molar ratio. For in vitro crosslinking, most liposomes consisted of 88.5 mol% DOPC as carrier lipid, 10 mol% DOPS, and 1.5 mol% respective pac-lipid. The pac-lipids were incorporated into liposomes at low concentrations (1.5 mol%) to ensure homogenous distribution and avoid micelle formation. The solvent was evaporated in a rotary evaporator (Hei-VAP Core, Heidolph) for 30 min at 42°C at 150 rpm to create a thin lipid film. Lipid films were hydrated with filtered and degassed PBS (137 mM NaCl, 2.7 mM KCl, 10 mM Na2HPO4, 1.8 mM KH2PO4, pH 7.4). Solutions of hydrated lipids (with a total lipid concentration of 2 mM) were subjected to five freeze–thaw cycles in liquid nitrogen and warm water (42°C) to facilitate breakup of large structures and support formation of smaller multilamellar vesicles. Lipid solutions were stored at −20°C. Before use, liposomes were extruded by passing 20x through a 100-nm pore size polycarbonate filter (Nuclepore; Whatman) using a hand extruder (Avanti Polar Lipids). Extruded liposomes were stored at 4°C, protected from light, and used within 1–2 d.
Extruded liposomes were diluted in PBS until a final lipid concentration of 60 μM, including 1 μM pac-lipid. Purified proteins were added until a final concentration of 1.5 μM in a reaction volume of 100 μl. Protein–liposome mixtures were incubated in 0.5-ml Eppendorf tubes for 30 min at 37°C at 400 rpm (Comfort thermomixer, Eppendorf), then crosslinked (or not) by exposure to 365-nm UV light for 15 min at 4°C using a 100-W mercury lamp (Blak-Ray B-100AP). After crosslinking, the click reaction was performed by adding 0.7 μl of freshly prepared click mix into the sample tubes. The final concentrations of click reagents in sample tubes were 80 μM CuSO4 (Merck), 3 μM TBTA (Merck), 3 μM AF647-picolyl azide (Jena Bioscience), and 80 μM ascorbic acid (Merck). Fresh stock of ascorbic acid solution in water was prepared every time and added to the click mix immediately before starting the click reaction. Click reactions were allowed to proceed for 2 h at 37°C at 400 rpm with the thermomixer. Then, samples were concentrated in a vacuum evaporator for 30 min set to 30°C and supplemented with 4x Lämmli buffer (250 mM Tris, pH 6.8, 9.2% SDS, 40% glycerol, 0.2% bromophenol blue, 100 mM DTT). Samples were boiled for 5 min at 95°C, and clicked protein–lipid complexes were resolved by SDS–PAGE. After extensive destaining in a destain solution (65% water, 25% isopropanol, and 10% acetic acid), the AF647 (a structural analog of Alexa Fluor 647) and Coomassie images were acquired using the LI-COR Odyssey imaging system. Data were evaluated by subtracting background fluorescence, followed by comparing the AF647 signal between crosslinked and non-crosslinked samples, normalized to protein loading based on Coomassie staining. The resulting values are described as +UV/−UV ratios. Statistics were calculated with the Mann–Whitney U test.

[3] = target: T2, NTD of NCR1 (Saccharomyces cerevisiae, UniProt Q12200); experiment: In vitro liposome crosslinking assay of pac-lipids with the NTD; type: binding; details: liposomes with 1.5 mol% pac-lipid (1 μM), 1.5 μM NTD, average ratio
T2 construct: residues 1–249, UniProt: Q12200; thrombin cleavage site (C); deca-histidine tag (C, cleaved yes); made in house; host or cells: Saccharomyces cerevisiae strain DSY-5
T2 sequence (Q12200 20-249): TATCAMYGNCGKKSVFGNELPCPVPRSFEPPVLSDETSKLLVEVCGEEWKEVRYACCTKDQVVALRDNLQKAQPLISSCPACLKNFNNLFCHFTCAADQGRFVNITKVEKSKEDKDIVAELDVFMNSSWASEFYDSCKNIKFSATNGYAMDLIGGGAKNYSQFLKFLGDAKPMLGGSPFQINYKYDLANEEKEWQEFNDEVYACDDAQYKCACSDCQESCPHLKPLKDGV
From the text: In a parallel approach, the substrate scope of the NTD and NPC2 was probed with photo-activatable and clickable (pac) lipids. Pac-lipids contain small chemical modifications for click chemistry reactions, with fluorophores such as AF647 (a structural analog of Alexa Fluor 647), and for UV-activated photo-crosslinking, respectively ([45]). In contrast to NBD-tagged lipids delivered in solution, pac-lipids such as pac-cholesterol (pacChol), pac-phosphatidylcholine (pacPC), pac-sphingosine (pacSph), and pac-ceramide (pacCer) were reconstituted in liposomal membranes (Fig 5A and B). As expected, the delipidated NTD crosslinks with pacChol (average +UV/−UV ratio = 2.11). Crosslinking of the NTD with pacSph (+UV/−UV = 1.73) and, to a lesser extent, with pacCer and pacPC (+UV/−UV = 1.40 and 1.12), respectively, was also detected (Fig 5C and D).
Lipids from stock vials were dissolved in chloroform and mixed at the desired molar ratio. […]
Extruded liposomes were diluted in PBS until a final lipid concentration of 60 μM, including 1 μM pac-lipid. […] Data were evaluated by subtracting background fluorescence, followed by comparing the AF647 signal between crosslinked and non-crosslinked samples, normalized to protein loading based on Coomassie staining. […] Statistics were calculated with the Mann–Whitney U test.

[4] = CMC measurement of edelfosine with Sudan Black B absorbance; type: physicochemical; details: MES buffer pH 5.5, Sudan Black B absorbance 600 nm, n = 1
Protocol: As edelfosine is not fluorescent, a different approach was used to measure its CMC. The hydrophobic dye, Sudan Black B, was used to stain micelles. The absorption of solutions consisting of MES buffer, Sudan Black, and increasing concentrations of edelfosine was measured using a spectrophotometer (Hitachi U-2010).
(§1) To determine the CMC, the sigmoid curve was fitted and adjusted to the normalized data: f(x)=l/1+e^−k⋅(x−x0)+b (3)
(§2) Here, l is the scaling of the y-axis, x0 represents the CMC, k determines the sharpness of the fitted curve, and b is the starting position on the y-axis.

[5] = target: T2, NTD of NCR1; experiment: Competitive binding assays of edelfosine and NBD-Sph to the NTD; details: for Kd: 1 μM NBD-Sph, read-out: apparent KD of NBD-Sph to the NTD
From the text: Edelfosine is a synthetic lysophospholipid with cytotoxic antifungal effects. […] To investigate this, two competitive binding assays with edelfosine and NBD-Sph were designed (Fig 4). For the first assay, the NTD was saturated by NBD-Sph and the addition of edelfosine led to the exchange of the NTD-bound substrate, causing a drop in NBD-Sph fluorescence by about 50% (Fig 4A). […] To further evaluate the capability of NBD-Sph to participate in micelle formation, each emission spectrum was normalized with varying concentrations of edelfosine (Fig 4B). […] The shift in the wavelength of the emission peaks indicates a change in the environment of the fluorophore ([48], [49], [50]), likely indicating the transition of NBD-Sph from being free in solution to being incorporated into mixed micelles with edelfosine. Initially, emission peaks at ∼530 nm are observed, assigned to be NTD and NBD-Sph complexes (Fig 4C). […] Similarly, for binding of substrates at higher concentrations than their CMC, this binding assay is rather complex because of edelfosine exceeding its CMC. […] Because of these restrictions, the inhibitory constant for edelfosine is referred to as apparent, rather than a real, inhibitor constant (KI).
Based on the above observations, fixed amounts of edelfosine were added to NBD-Sph before titrating with the NTD in the second assay (Fig 4D).
For measuring the ability of edelfosine to outcompete NBD-Sph, 1 μM NBD-Sph and 1 μM NTD were mixed to form the interaction complex before adding increasing amounts of edelfosine. As a control, edelfosine was titrated into a cuvette containing exclusively NBD-Sph in buffer. To measure the competitive binding between NBD-Sph and edelfosine, 1 μM NBD-lipid in Tris buffer was mixed with either 0.1, 0.5, or 0.7 μM edelfosine in the sample cuvette before titration with the NTD.
Before determination of dissociation constants, the measurements were normalized. The protein–lipid binding measurements were normalized to the highest intensity in each dataset. For the competition assay, the data were normalized to the lowest intensity in the dataset to be able to fit all data to Equation (1), the full model for one-site binding for the saturated fraction, f ([27]):(1) RL/Rt=Rt+KD+Lt-Rt+KD+Lt^2-4⋅Rt⋅Lt/2⋅Rt=f
To determine the dissociation constant of edelfosine (referred to as KI) in the competition assay, it can be assumed that the binding is simple and that all added ligand is bound. In this case, the IC50 can be used to calculate a KI using Equation (2) on normalized data:(2) KI=IC50⋅KD/KD+L
The KD is the dissociation constant of the ligand, [L] is the concentration, and IC50 is the concentration of the inhibitor, where half of the ligand is inhibited.

[6] = target: T1, NPC2; experiment: Fluorescence binding assay of NBD-lipids titrated with NPC2
Protocol: (§3) To investigate substrate candidates for the NTD of NCR1 and NPC2, biochemical assays were conducted with purified protein and fluorescent lipid analogs. The purified, delipidated NTD was titrated into NBD-tagged phospholipids and sphingolipids, in which the fluorophore is attached to the hydrophobic tail of the lipid molecules. An increase in signal is based on an enhanced molecular brightness of the NBD-moiety upon binding in a more hydrophobic environment ([28]). This increase in fluorescence correlates with the concentration of the NTD (Fig 3A), which can be used to infer the affinity of the NTD to a given NBD-lipid (Fig 3B–G). […] The measured increase in fluorescence of each NBD-lipid upon titrating the protein was used to determine an apparent dissociation constant (KD) according to a one-site binding model (Equation (1)).
(§4) Fluorescence binding assays were conducted using NBD-PC, NBD-PS, NBD-Cer, and NBD-Sph (Avanti Polar Lipids), and NBD-PI (Prof. Bütikofer), dissolved in ethanol. […] NBD-lipids were excited at 460 nm, and the emission spectra were recorded within a range of 490–600 nm. […] Emission spectra for NBD-lipids were measured as a control and subtracted from the sample emission spectra. The control cuvette was measured every time the sample was measured to correct the data for bleaching of NBD-Sph. […]

[7] = CMC measurement of NBD-lipids by fluorescence; type: physicochemical; details: MES buffer pH 5.5, fluorescence 460/530 nm
Protocol: The CMC of NBD-Sph was measured by adding increasing concentrations of NBD-Sph to a cuvette containing MES buffer. Between measurements, the solution was mixed and incubated for 10 min. The highest measured concentration of NBD-Sph was 30 μM.
as §1, §2

[8] = target: T2, NTD of NCR1; experiment: Fluorescence binding assay of NBD-lipids titrated with the NTD
Protocol: as §3, §4

[9] = 20 mol% ergosterol: 1 μM pac-lipid and 13 μM ergosterol

effect of ergosterol on NPC2 crosslinking with pacChol and pacPC [2, 9]: does not visibly influence | effect of ergosterol on NPC2 crosslinking with pacSph and pacCer [2, 9]: trend toward increased crosslinking | effect of ergosterol on NPC2 crosslinking with pacSph and pacCer ([2]; 20 mol% ergosterol: 1 μM pac-lipid and 13 μM ergosterol, listed as ergosterol): increased crosslinking
SMILES: CC(C)[C@@H](C)/C=C/[C@@H](C)[C@H]1CC[C@H]2C3=CC=C4C[C@@H](O)CC[C@]4(C)[C@H]3CC[C@]12C [Ergosterol, ergosterol]

critical micelle concentration (CMC) [4]: 0.7 µM and 0.715 µM | IC50 ([5]; 1 μM NBD-Sph mixed with 1 μM NTD, 0 to 4 μM edelfosine, pH 7.5, read-out: IC50 of edelfosine against NBD-Sph binding to the NTD): 480 nM and 500 nM | drop in NBD-Sph fluorescence on addition of edelfosine ([5]; NTD saturated by NBD-Sph, pH 7.5): about 50% | Ki ([5]; calculated from IC50 with Equation (2), apparent, edelfosine exceeds its CMC, read-out: apparent inhibitor constant (KI)): ~50 nM
SMILES: CCCCCCCCCCCCCCCCCCOCC(COP(=O)([O-])OCC[N+](C)(C)C)OC (centres unmarked) [edelfosine]
effect of edelfosine on NPC2 crosslinking with pac-lipids ([2]; fivefold excess: 1 μM pac-lipid and 5 μM edelfosine in liposomes): no noticeable inhibition of crosslinking; also recorded: no noticeable effect

Kd ([6]; pH 5.5, 1 μM NBD-lipid, values marked ° are apparent KD): ~580 nM and 580 nM | Kd ([6]; pH 7.5, 1 μM NBD-lipid): ~530 nM and 530 nM | critical micelle concentration (CMC) [7]: ~13 µM | Kd ([8]; pH 5.5, 1 μM NBD-lipid, values for NBD-PC, NBD-PS, NBD-Cer (marked °) are apparent KD, above CMC): ~250 nM and 250 nM | Kd ([8]; pH 7.5, 1 μM NBD-lipid): ~120 nM and 120 nM | Kd ([5]; 0.0 μM edelfosine, pH 7.5): 120 nM and ~120 nM | Kd ([5]; 0.1 μM edelfosine, pH 7.5): 120 ± 10 nM | Kd ([5]; 0.5 μM edelfosine, pH 7.5): 160 ± 60 nM | Kd ([5]; 0.7 μM edelfosine, pH 7.5): 210 nM and ~210 nM
SMILES: NC(CO)C(O)C=CCCCCCCCCCCCCCNc1ccc([N+](=O)[O-])c2nonc12 (centres unmarked) [NBD-Sph]

The next lines start with the molecule.

SMILES: CCCCCCCCCCCCC/C=C/[C@@H](O)[C@@H](N)CO [sphingosine]
pKa [1]: 6.61

SMILES: C#CCCCCOC(=O)CCC(C)C1CCC2C3CC4(N=N4)C4CC(O)CCC4(C)C3CCC12C (centres unmarked) [pacChol]
+UV/−UV ratio (crosslinking with NPC2) ([2]; liposomes with 1.5 mol% pac-lipid (1 μM), 1.5 μM NPC2): 1.91 | +UV/−UV ratio (crosslinking with NTD) [3]: 2.11
